{
  "source": "patent US20230085607A1",
  "about": "“IVERMECTIN COMPOSITIONS FOR TREATMENT OF COVID-19” (priority 2021, published 2023)",
  "origin": "cited, not measured here",
  "key": {"[1]": {"tested_on": "LPS-stimulated primary peritoneal macrophages"}, "[2]": {"tested_on": "LPS-challenged macrophages", "conditions": "0 to 50 μM, 6 h pre-incubation, LPS 24 h"}, "[3]": {"tested_on": "mice with LPS-induced ARDS"}, "[4]": {"tested_on": "nitric oxide"}, "[5]": {"tested_on": "mice challenged with endotoxin (LPS O111:B4) or live Escherichia coli", "conditions": "for concentration of IL-1 α: controls 1187.0±278.64"}, "[6]": {"tested_on": "lipopolysaccharide-activated macrophages"}, "[7]": {"tested_on": "macrophage foam cells"}, "[8]": {"tested_on": "rats subjected to myocardial ischemia and reperfusion", "conditions": "10 mg/kg intravenously then 10 mg/kg/h infusion"}, "[9]": {"tested_on": "mice with experimental colitis"}, "[10]": {"tested_on": "rats with polymicrobial sepsis (CL2P)", "conditions": "10 mg/kg intraperitoneally at 1 and 6 h after CL2P and every 12 h"}, "[11]": {"tested_on": "mice with polymicrobial sepsis (CL2P)", "conditions": "10 mg/kg intraperitoneally, monitored 72 h after CL2P"}, "[12]": {"tested_on": "mice with lethal endotoxemia or lethal sepsis"}, "[13]": {"tested_on": "mice with LPS-induced ARDS", "remark": "listed apart in the source"}, "[14]": {"conditions": "50 mg/kg, LPS 5 mg/kg 3 days later"}, "[15]": {"conditions": "50 and 100 mg/kg/day, compared with MD group"}},
  "note": "Like-named read-outs stand apart in the source and are kept apart here.",
  "data": [
    {"compound": "C[S+]([O-])CCCCN=C=S", "note": "(centres unmarked) [sulforaphane, 1-isothiocyanato-4-(methylsulfinyl)-butane]", "values": [
      {"measurement": "HO-1 expression", "setting": "[1]; LPS-stimulated Nrf2 (+/+) primary peritoneal macrophages", "result": "significantly augmented"},
      {"measurement": "LPS-stimulated mRNA expression, protein expression and production of TNF-alpha, IL-1beta, COX-2 and iNOS", "setting": "[1]; Nrf2 (+/+) primary peritoneal macrophages, pretreatment", "result": "potently inhibited"},
      {"measurement": "anti-inflammatory effect", "setting": "[1]; Nrf2 (−/−) primary peritoneal macrophages", "result": "attenuated"},
      {"measurement": "direct reaction with cytokines or NO", "setting": "[2]", "result": "neither directly reacted"},
      {"measurement": "expression of NO and cytokines", "setting": "[2]", "result": "able to prevent"},
      {"measurement": "inducible nitric oxide synthase (iNOS) activity", "setting": "[3]; 50 mg/kg", "result": "significantly inhibited"},
      {"measurement": "nuclear factor-κB protein expression", "setting": "[3]; 50 mg/kg", "result": "significantly decreased"},
      {"measurement": "prostaglandin E2 (PGE2) production", "setting": "[3]; 50 mg/kg", "result": "significantly inhibited"},
      {"measurement": "serum levels of interleukin-6 (IL-6)", "setting": "[3]; 50 mg/kg, ELISA", "result": "significantly decreased"},
      {"measurement": "serum levels of tumor necrosis factor-α (TNF-α)", "setting": "[3]; 50 mg/kg, ELISA", "result": "significantly decreased"},
      {"measurement": "lactate dehydrogenase (LDH) activity", "setting": "[3]; [14]", "result": "significantly decreased"},
      {"measurement": "wet-to-dry ratio of the lungs", "setting": "[3]; [14]", "result": "significantly decreased"},
      {"measurement": "cyclooxygenase-2 (COX-2) protein expression", "setting": "[3]; 50 mg/kg, western blot", "result": "significantly inhibited"},
      {"measurement": "matrix metalloproteinase-9 (MMP-9) protein expression", "setting": "[3]; 50 mg/kg, western blot", "result": "significantly inhibited"},
      {"measurement": "Nrf2/antioxidant response element (ARE) pathway", "setting": "[3]; pre-treatment", "result": "activated"}
    ]},
    {"compound": "CC1=CC(=O)C(C(C)C)=CC1=O", "note": "[thymoquinone]", "values": [
      {"measurement": "lipopolysaccharide-induced inflammatory reactions", "setting": "[4]", "result": "suppressed effectively"},
      {"measurement": "concentration of nitric oxide", "setting": "[4]; lipopolysaccharide-induced", "result": "reduced significantly"},
      {"measurement": "concentration of IL-1 α", "setting": "[5]; 0.75 mg/kg dose", "result": "310.8 ± 70.93", "unit": "pg/mL"},
      {"measurement": "IL-10 levels", "setting": "[5]; 0.75 mg/kg, controls 5505.2±333.96", "result": "2885.0 ± 553.98", "unit": "pg/mL"},
      {"measurement": "concentration of IL-1 α", "setting": "[5]; 1 mg/kg group", "result": "428.3 ± 71.32", "unit": "pg/mL"},
      {"measurement": "levels of IL-2", "setting": "[5]; P=0.0851", "result": "relatively lower"},
      {"measurement": "levels of TNF-α", "setting": "[5]; P=0.1817", "result": "relatively lower"},
      {"measurement": "mortality reduction", "setting": "[5]; mice, sepsis", "result": "80-90%"},
      {"measurement": "renal and hepatic biomarker profiles", "setting": "[5]; mice, sepsis", "result": "improved"}
    ]},
    {"compound": "epigallocatechin-3-gallate [EGCG]", "values": [
      {"measurement": "disappearance of inhibitor kappaB from cytosolic fraction", "setting": "[6]", "result": "blocked"},
      {"measurement": "NO production", "setting": "[6]; cells cotreated with EGCG and LPS", "result": "Inhibition"},
      {"measurement": "activation of nuclear factor-kappaB", "setting": "[6]; electrophoretic mobility shift assay", "result": "blocked"},
      {"measurement": "TNF-α-induced nuclear factor-κB (NF-κB) activity", "setting": "[7]", "result": "inhibition"},
      {"measurement": "TNF-α-induced downregulation of ABCA1 and decrease in cholesterol efflux to apoA1", "setting": "[7]; pretreatment", "result": "attenuated"},
      {"measurement": "myeloperoxidase activity", "setting": "[8]", "result": "reduced"},
      {"measurement": "myocardial damage", "setting": "[8]", "result": "reduced"},
      {"measurement": "plasma IL-6 levels", "setting": "[8]", "result": "decreased"},
      {"measurement": "plasma creatine phosphokinase levels", "setting": "[8]", "result": "decreased"},
      {"measurement": "colonic tissue erosion", "setting": "[9]; [15]", "result": "attenuation"},
      {"measurement": "disease activity index (DAI)", "setting": "[9]; [15]", "result": "decreased"},
      {"measurement": "spleen index (SI)", "setting": "[9]; [15]", "result": "decreased"},
      {"measurement": "HIF-1α and STATS protein expression in the colon", "setting": "[9]; mouse, in vivo", "result": "decreasing"},
      {"measurement": "plasma levels of IL-10 and TGF-β1", "setting": "[9]; mouse, in vivo", "result": "increasing"},
      {"measurement": "release of IL-6 and IL-17", "setting": "[9]; plasma", "result": "reduce"},
      {"measurement": "hypotension (mean arterial blood pressure)", "setting": "[10]", "result": "significantly improved"},
      {"measurement": "survival", "setting": "[11]", "result": "significantly improved"},
      {"measurement": "rescue from lethal sepsis", "setting": "[12]; first dose 24 hours after cecal ligation and puncture", "result": "rescued"},
      {"measurement": "protection against lethal endotoxemia", "setting": "[12]; intraperitoneal administration", "result": "protected"},
      {"measurement": "systemic accumulation of HMGB1, IL-6 and KC", "setting": "[12]; mouse, in vivo", "result": "attenuation"},
      {"measurement": "changes in blood gases", "setting": "[13]; 10 mg/kg ip", "result": "decreased"},
      {"measurement": "expression of IκB-α", "setting": "[13]; 10 mg/kg ip", "result": "increased"},
      {"measurement": "expression of TLR-4, MyD88, TRIF and p-p65 in the lung tissue", "setting": "[13]; 10 mg/kg ip", "result": "alleviated"},
      {"measurement": "expression of TNF-α, IL-1β and IL-6 in the lung, serum and bronchoalveolar lavage fluid", "setting": "[13]; 10 mg/kg ip", "result": "significantly decreased"},
      {"measurement": "expression of p65", "setting": "[13]; 10 mg/kg ip", "result": "no influence"},
      {"measurement": "histological lesions", "setting": "[13]; 10 mg/kg ip", "result": "reduced"},
      {"measurement": "myeloperoxidase (MPO) activity", "setting": "[13]; 10 mg/kg ip", "result": "reduced"},
      {"measurement": "wet-to-dry weight ratios", "setting": "[13]; 10 mg/kg ip", "result": "reduced"},
      {"measurement": "LPS-induced ARDS", "setting": "[13]; 10 mg/kg ip 1 h before LPS 10 mg/kg ip", "result": "attenuated"}
    ]}
  ]
}
